In patent publication US10800792B2, “Inhibitors of Bruton's tyrosine kinase and method of their use” (JANSSEN PHARMACEUTICA NV, priority 2015, dated 2020):

biological target: unphosphorylated-BTK kinase domain (UP-BTK), GST-tagged human BTK (389-659aa) (Homo sapiens (Human), UniProt Q06187); assay: BTK kinase Lanthascreen binding assay; settings: Lanthascreen tracer competition, 60 minutes incubation; pIC50 = negative log of the IC50 in molar
Procedure, shortened: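 A fluorescent tracer is bound to unphosphorylated BTK; test compound is added to compete it off; the Lanthascreen signal is read and IC50 is fitted, then reported as its negative log in molar.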

Chain of unphosphorylated-BTK kinase domain (UP-BTK), GST-tagged human BTK (389-659aa) (Q06187 389-659): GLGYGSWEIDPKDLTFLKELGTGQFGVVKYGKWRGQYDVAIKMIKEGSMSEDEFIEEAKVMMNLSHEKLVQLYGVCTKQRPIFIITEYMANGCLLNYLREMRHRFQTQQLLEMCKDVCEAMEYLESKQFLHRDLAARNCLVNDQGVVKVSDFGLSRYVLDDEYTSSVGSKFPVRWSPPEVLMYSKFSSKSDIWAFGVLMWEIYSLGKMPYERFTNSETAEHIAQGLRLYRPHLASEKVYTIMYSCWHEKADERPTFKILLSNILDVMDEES

| Compound | BTK_I_binding pIC50 |
| --- | --- |
| Cc1cc(Oc2ccccc2)ccc1N1C(=O)Nc2c(C(=O)N[C@@H]3CCN(C(=O)/C(C#N)=C/C4CC4)C3)sc3nccc1c23 [Example 844, (R,E)-N-(1-(2-Cyano-3-cyclopropylacryloyl)pyrrolidin-3-yl)-5-(2-methyl-4-phenoxyphenyl)-4-oxo-4,5-dihydro-3H-1-thia-3,5,8-triazaacenaphthylene-2-carboxamide] | 7.6 |
| C=CC(=O)N1CCC[C@@H](NC(=O)c2sc3nccc4c3c2NC(=O)N4c2cnnc(-c3ccccc3)c2)C1 [Example 678, (R)—N-(1-Acryloylpiperidin-3-yl)-4-oxo-5-(6-phenylpyridazin-4-yl)-4,5-dihydro-3H-1-thia-3,5,8-triazaacenaphthylene-2-carboxamide] | 7.3 |
| C=CC(=O)N1CCC[C@@H](NC(=O)c2sc3nccc4c3c2NC(=O)N4c2cc(-c3ccccc3)ccc2C)C1 [Example 688, (R)—N-(1-Acryloylpiperidin-3-yl)-5-(4-methyl-[1,1′-biphenyl]-3-yl)-4-oxo-4,5-dihydro-3H-1-thia-3,5,8-triazaacenaphthylene-2-carboxamide] | 7.5 |
| CC(=O)c1cccc(N2C(=O)Nc3c(C(=O)N[C@@H]4CCCNC4)sc4nccc2c34)c1 [Example 643, (R)-5-(3-Acetylphenyl)-4-oxo-N-(piperidin-3-yl)-4,5-dihydro-3H-1-thia-3,5,8-triazaacenaphthylene-2-carboxamide] | 5.1 |
| C=CC(=O)N1CC[C@@H](NC(=O)c2sc3nccc4c3c2NC(=O)N4c2ccc(Oc3ccccc3)nc2C)C1 (single isomer, unassigned) [Example 666, (R)—N-(1-Acryloylpyrrolidin-3-yl)-5-(*R)-(2-methyl-6-phenoxypyridin-3-yl)-4-oxo-4,5-dihydro-3H-1-thia-3,5,8-triazaacenaphthylene-2-carboxamide] | 6.3 |
| C=CC(=O)N1CCC[C@@H](NC(=O)c2sc3nccc4c3c2NC(=O)N4c2ccnc(C(C)C)c2)C1 [Example 697, (R)—N-(1-Acryloylpiperidin-3-yl)-5-(2-isopropylpyridin-4-yl)-4-oxo-4,5-dihydro-3H-1-thia-3,5,8-triazaacenaphthylene-2-carboxamide] | 6.9 |
| Cc1cc(C(=O)Nc2cc(C(F)(F)F)ccn2)ccc1N1C(=O)Nc2c(C(=O)N[C@H]3CCCN(C(=O)/C(C#N)=C/C4CC4)C3)sc3nccc1c23 [Example 895, (S,E)-N-(1-(2-Cyano-3-cyclopropylacryloyl)piperidin-3-yl)-5-(2-methyl-4-((4-(trifluoromethyl)pyridin-2-yl)carbamoyl)phenyl)-4-oxo-4,5-dihydro-3H-1-thia-3,5,8-triazaacenaphthylene-2-carboxamide] | 7.0 |

same assay, conditions: pIC50 = negative log of the IC50 in molar; 60 minutes incubation, 50 nM Tracer 236

| Compound | BTK_I_binding pIC50 |
| --- | --- |
| Cc1c(N2C(=O)Nc3c(C(=O)N[C@@H]4CCCOC4)sc4nccc2c34)ccc(Oc2ccccc2)c1F [Example 71, (R)-5-(3-Fluoro-2-methyl-4-phenoxyphenyl)-4-oxo-N-(tetrahydro-2H-pyran-3-yl)-4,5-dihydro-3H-1-thia-3,5,8-triazaacenaphthylene-2-carboxamide] | 7.5 |
| C=CC(=O)N1CCC[C@@H](NC(=O)c2sc3nccc4c3c2NC(=O)N4c2ccc(F)cc2)C1 [Example 255, (R)—N-(1-Acryloylpiperidin-3-yl)-5-(4-fluorophenyl)-4-oxo-4,5-dihydro-3H-1-thia-3,5,8-triazaacenaphthylene-2-carboxamide] | 6.6 |
| Cc1cc(Oc2ccccc2)ccc1N1C(=O)Nc2c(C(=O)N[C@@H]3C[C@H](F)CN(C)C3)sc3nccc1c23 [Example 164, N-((3R,5S)-5-Fluoro-1-methylpiperidin-3-yl)-5-(2-methyl-4-phenoxyphenyl)-4-oxo-4,5-dihydro-3H-1-thia-3,5,8-triazaacenaphthylene-2-carboxamide] | 6.8 |
| COCCC(=O)N1CCC[C@@H](NC(=O)c2sc3nccc4c3c2NC(=O)N4c2ccc(Oc3ccccc3)c(F)c2C)C1 [Example 89, (R)-5-(3-Fluoro-2-methyl-4-phenoxyphenyl)-N-(1-(3-methoxypropanoyl)piperidin-3-yl)-4-oxo-4,5-dihydro-3H-1-thia-3,5,8-triazaacenaphthylene-2-carboxamide] | 7.1 |
| Cc1cc(Oc2ccccc2)ccc1N1C(=O)Nc2c(C(=O)NC3CCNC(=O)C3)sc3nccc1c23 (stereo not shown) [Example 166, 5-(2-Methyl-4-phenoxyphenyl)-4-oxo-N-(2-oxopiperidin-4-yl)-4,5-dihydro-3H-1-thia-3,5,8-triazaacenaphthylene-2-carboxamide] | 6.9 |

same assay, conditions: pIC50 = negative log of the IC50 in molar; 60 minutes incubation, 50 nM Tracer 236; read-out: BTK_I_binding pIC50 (converted)

| Compound | IC50 |
| --- | --- |
| Cc1cc(Oc2ccccc2)ccc1N1C(=O)Nc2c(C(=O)N[C@@H]3CCCN(C(=O)/C(C#N)=[13CH]/C4CC4)C3)sc3nccc1c23 [Example 41, (R,E)-N-(1-(2-Cyano-3-^13C-cyclopropylacryloyl)piperidin-3-yl)-5-(2-methyl-4-phenoxyphenyl)-4-oxo-4,5-dihydro-3H-1-thia-3,5,8-triazaacenaphthylene-2-carboxamide] | 50.1 nM |
| Cc1cc(Oc2ccccc2)ccc1N1C(=O)Nc2c(C(=O)N[C@@H]3CCCN(C(=O)/C=C/CN)C3)sc3nccc1c23 [Example 27, (R,E)-N-(1-(4-Aminobut-2-enoyl)piperidin-3-yl)-5-(2-methyl-4-phenoxyphenyl)-4-oxo-4,5-dihydro-3H-1-thia-3,5,8-triazaacenaphthylene-2-carboxamide] | 50.1 nM |

same assay, conditions: unphosphorylated-BTK kinase domain, 50 nM Tracer 236, 60 minutes; pIC50 = negative log of the IC50 in molar

| Compound | BTK_I_binding pIC50 |
| --- | --- |
| Cc1cc(Oc2ccccc2)ccc1N1C(=O)Nc2c(C(=O)NCC(=O)N3CCOCC3)sc3nccc1c23 [Example 315, 5-(2-Methyl-4-phenoxyphenyl)-N-(2-morpholino-2-oxoethyl)-4-oxo-4,5-dihydro-3H-1-thia-3,5,8-triazaacenaphthylene-2-carboxamide] | 6.9 |
| O=C(N[C@@H]1CCCNC1)c1sc2nccc3c2c1NC(=O)N3c1ccc(C(F)(F)F)cc1 [Example 341, (R)-4-Oxo-N-(piperidin-3-yl)-5-(4-(trifluoromethyl)phenyl)-4,5-dihydro-3H-1-thia-3,5,8-triazaacenaphthylene-2-carboxamide] | 5.2 |
| C=CC(=O)N1CCC[C@@H](NC(=O)c2sc3nccc4c3c2NC(=O)N4c2cccc(-c3cccc(Cl)c3)c2)C1 [Example 507, (R)—N-(1-Acryloylpiperidin-3-yl)-5-(3′-chloro-[1,1′-biphenyl]-3-yl)-4-oxo-4,5-dihydro-3H-1-thia-3,5,8-triazaacenaphthylene-2-carboxamide] | 7.8 |
| C=CC(=O)N1CCC[C@@H](NC(=O)c2sc3nccc4c3c2NC(=O)N4c2ccc(Oc3ccccc3)nc2)C1 [Example 506, (R)—N-(1-Acryloylpiperidin-3-yl)-4-oxo-5-(6-phenoxypyridin-3-yl)-4,5-dihydro-3H-1-thia-3,5,8-triazaacenaphthylene-2-carboxamide] | 7.9 |
| CN(C)C/C=C/C(=O)N1CCC[C@@H](NC(=O)c2sc3nccc4c3c2NC(=O)N4c2ccc(Oc3ccccc3)c(Cl)c2)C1 [Example 541, (R,E)-5-(3-Chloro-4-phenoxyphenyl)-N-(1-(4-(dimethylamino)but-2-enoyl)piperidin-3-yl)-4-oxo-4,5-dihydro-3H-1-thia-3,5,8-triazaacenaphthylene-2-carboxamide] | 7.2 |
| C=CC(=O)N1C[C@@H](O)[C@@H](NC(=O)c2sc3nccc4c3c2NC(=O)N4c2ccc(Oc3ccccc3)cc2C)C1 (relative stereo) [Example 489, N-((3S,4R)-1-Acryloyl-4-hydroxypyrrolidin-3-yl)-5-(*S)-(2-methyl-4-phenoxyphenyl)-4-oxo-4,5-dihydro-3H-1-thia-3,5,8-triazaacenaphthylene-2-carboxamide] | 7.6 |
| COc1ccc(N2C(=O)Nc3c(C(=O)N[C@@H]4CCCNC4)sc4nccc2c34)cc1C(F)(F)F [Example 459, (R)-5-(4-Methoxy-3-(trifluoromethyl)phenyl)-4-oxo-N-(piperidin-3-yl)-4,5-dihydro-3H-1-thia-3,5,8-triazaacenaphthylene-2-carboxamide] | <5 |
| C=CC(=O)N1CCC[C@@H](NC(=O)c2sc3nccc4c3c2NC(=O)N4c2ccc(OC(F)(F)F)cc2C)C1 [Example 414, (R)—N-(1-Acryloylpiperidin-3-yl)-5-(2-methyl-4-(trifluoromethoxy)phenyl)-4-oxo-4,5-dihydro-3H-1-thia-3,5,8-triazaacenaphthylene-2-carboxamide] | 7.4 |
| Cc1cc(Oc2ccccc2)ccc1N1C(=O)Nc2c(C(=O)N[C@@H]3CCCN(C(=O)/C=C/CN4CCOCC4)C3)sc3nccc1c23 [Example 403, (R,E)-5-(2-Methyl-4-phenoxyphenyl)-N-(1-(4-morpholinobut-2-enoyl)piperidin-3-yl)-4-oxo-4,5-dihydro-3H-1-thia-3,5,8-triazaacenaphthylene-2-carboxamide] | 6.4 |
| CCN1CCC[C@@H](NC(=O)c2sc3nccc4c3c2NC(=O)N4c2ccc(Oc3ccccc3C(C)C)cc2C)C1 [Example 320, (R)—N-(1-Ethylpiperidin-3-yl)-5-(4-(2-isopropylphenoxy)-2-methylphenyl)-4-oxo-4,5-dihydro-3H-1-thia-3,5,8-triazaacenaphthylene-2-carboxamide] | 6.7 |

same assay, conditions: unphosphorylated-BTK kinase domain, 60 minutes incubation, 50 nM Tracer 236; pIC50 = negative log of the IC50 in molar

| Compound | BTK_I_binding pIC50 |
| --- | --- |
| CCC(=O)N1CCC(NC(=O)c2sc3nccc4c3c2NC(=O)N4c2ccc(Oc3ccccc3)cc2C)CC1 [Example 947, 5-(2-Methyl-4-phenoxyphenyl)-4-oxo-N-(1-propionylpiperidin-4-yl)-4,5-dihydro-3H-1-thia-3,5,8-triazaacenaphthylene-2-carboxamide] | 5.4 |
